Assay results: ChEMBL document CHEMBL1151597, “THE ROLE OF ARGININE IN THE BINDING OF LTD4 ANTAGONISTS TO cysLT1 RECEPTORS OF GUINEA PIG LUNG” (Bioorg Med Chem Lett, 1997)

Molecular target: T1, Cysteinyl leukotriene receptor 1 (Cavia porcellus, UniProt Q2NNR5)
T1 sequence (Q2NNR5 whole entry): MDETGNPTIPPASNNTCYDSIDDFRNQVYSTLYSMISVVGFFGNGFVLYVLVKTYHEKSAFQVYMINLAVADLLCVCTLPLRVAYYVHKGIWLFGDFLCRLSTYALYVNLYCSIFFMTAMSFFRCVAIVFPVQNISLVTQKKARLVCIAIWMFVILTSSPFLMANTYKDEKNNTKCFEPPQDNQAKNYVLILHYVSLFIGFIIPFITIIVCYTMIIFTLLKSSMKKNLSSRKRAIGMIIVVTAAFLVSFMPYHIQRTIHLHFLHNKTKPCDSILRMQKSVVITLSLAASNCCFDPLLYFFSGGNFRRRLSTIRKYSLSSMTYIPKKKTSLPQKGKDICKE
Test: Dissociation constant for CysLT1 receptor was determined by the displacement of [3H]LTD4 from guinea pig lung membranes
Format: tissue-based, Membrane

Kd: 0.0000301 M l-1
Compound: COc1cc(C(=O)NS(=O)(=O)c2ccccc2)ccc1Cn1ncc2ccc(NC(=O)OC3CCCC3)cc21 [ICI-198615]
